Assays:
[1] = test system: Thanatephorus Cucumeris(Rhizoctonia Solani); assay: Thanatephorus cucumeris (Rhizoctonia solani) / liquid culture (foot rot, damping-off); assay type: cell-based; details: PDB potato dextrose broth, 24° C., 3-4 days after application, read-out: disease control (inhibition of growth, photometrically)
In short: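 Mycelial fragments in potato dextrose broth exposed to compound (DMSO solution) at 200 ppm. Incubation at 24° C.; growth inhibition measured photometrically 3-4 days after application.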

[2] = test system: Mycosphaerella Arachidis(Cercospora Arachidicola); assay: Mycosphaerella arachidis (Cercospora arachidicola) / liquid culture (early leaf spot); assay type: cell-based; details: PDB potato dextrose broth, 24° C., 4-5 days after application, read-out: disease control (inhibition of growth, photometrically)
In short: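 Cryo-stored conidia in potato dextrose broth were added to compound in DMSO in microtiter plates. After incubation at 24 °C, growth inhibition was measured photometrically 4-5 days after application.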

[3] = test system: Botryotinia Fuckeliana(Botrytis Cinerea); assay: Botryotinia fuckeliana (Botrytis cinerea) / liquid culture (gray mould); assay type: cell-based; details: Vogels broth, 24° C., 3-4 days after application, read-out: disease control (inhibition of growth, photometrically)
Method: 9 Botryotinia Fuckeliana(Botrytis Cinerea)/Liquid Culture (Gray Mould) Conidia of the fungus from cryogenic storage were directly mixed into nutrient broth (Vogels broth). After placing a DMSO solution of test compound into a 96-well microtiter plate, the nutrient broth containing the fungal spores was added. The test plates were incubated at 24° C. and the inhibition of growth was determined photometrically 3-4 days after application.

Fusarium Culmorum = assay: microbe, parasite or virus in culture; assay type: cell-based; details: read-out: disease control (inhibition of growth, photometrically)
[4] = test system: Monographella Nivalis(Microdochium Nivale); assay: Monographella nivalis (Microdochium nivale) / liquid culture (foot rot cereals); assay type: cell-based; details: PDB potato dextrose broth, 24° C., 4-5 days after application, read-out: disease control (inhibition of growth, photometrically)
In short: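 Conidia from cryogenic storage mixed into potato dextrose broth, added to compound pre-dispensed from DMSO solution. Incubated at 24° C.; growth inhibition read photometrically 4-5 days after application.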

Plasmopara Viticola = assay: whole plant or invertebrate; assay type: in vivo; details: foliar, read-out: disease control
[5] = test system: Mycosphaerella Graminicola(Septoria Tritici); assay: Mycosphaerella graminicola (Septoria tritici) / liquid culture (Septoria blotch); assay type: cell-based; details: Zymoseptoria tritici, PDB potato dextrose broth, 24° C., 4-5 days after application, read-out: disease control (inhibition of growth, photometrically)
In short: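 Cryostored conidia mixed into potato dextrose broth and added to compound dispensed from DMSO solution. Incubation at 24 °C; growth inhibition read photometrically 4-5 days after application.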

Pythium Ultimum = assay: Pythium ultimum / liquid culture (seedling damping off); assay type: cell-based; details: Globisporangium ultimum, potato dextrose broth, 24° C., 2-3 days after application, read-out: disease control (inhibition of growth, photometrically)
[6] = test system: Glomerella Lagenarium(Colletotrichum Ladenarium); assay: Glomerella lagenarium (Colletotrichum lagenarium) / liquid culture (anthracnose); assay type: cell-based; details: PDB potato dextrose broth, 24° C., 3-4 days after application, read-out: disease control (inhibition of growth, photometrically)
In short: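 Cryostored conidia were suspended in potato dextrose broth and added to compound in DMSO. Cultures were incubated at 24 °C. Growth inhibition was measured photometrically 3–4 days after application.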

Gaeumannomyces Graminis = assay: Gaeumannomyces graminis / liquid culture (take-all of cereals); assay type: cell-based; details: PDB potato dextrose broth, 24° C., 4-5 days after application, read-out: disease control (inhibition of growth, photometrically)
In short: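 Mycelial fragments from cryogenic storage mixed into potato dextrose broth and added to test compound in DMSO. Incubated at 24° C; growth inhibition read photometrically 4-5 days after application.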

[7] = test system: Puccinia Recondita f. sp. Tritici; assay: Puccinia recondita f. sp. tritici / wheat / leaf disc preventative (brown rust); assay type: in vivo; details: foliar, wheat leaf segments cv Kanzler, inoculated 1 day after application, assessed 7-9 days after application, read-out: disease control
Method: 3 Puccinia Recondita f. sp. Tritici/Wheat/Leaf Disc Preventative (Brown Rust) Wheat leaf segments cultivated variety (cv) Kanzler were placed on agar in 24-well plates and sprayed with formulated test compound diluted in water. The leaf disks were inoculated with a spore suspension of the fungus 1 day after application. The inoculated leaf segments were incubated at 19° C. and 75% relative humidity under a light regime of 12/12 h (light/dark) in a climate cabinet and the activity of a compound was assessed as percent disease control compared to untreated when an appropriate level of disease damage appears in untreated check leaf segments (7-9 days after application).

Sclerotinia Sclerotiorum = assay: Sclerotinia sclerotiorum / liquid culture (cottony rot); assay type: cell-based; details: PDB potato dextrose broth, 24° C., 3-4 days after application, read-out: disease control (inhibition of growth, visually)
In short: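 Mycelial fragments from fresh liquid culture in potato dextrose broth added to test compounds in DMSO. Incubated at 24° C; growth inhibition scored visually 3-4 days after application.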

Phytophthora Infestans = assay: whole plant or invertebrate; assay type: in vivo; details: in Solanum lycopersicum, foliar, read-out: disease control
[8] = test system: Phaeosphaeria Nodorum (Septoria Nodorum); assay: Phaeosphaeria nodorum (Septoria nodorum) / wheat / leaf disc preventative (glume blotch); assay type: in vivo; details: Parastagonospora nodorum, foliar, wheat leaf segments cv Kanzler, inoculated 2 days after application, assessed 5-7 days after application, read-out: disease control
Method: 5 Phaeosphaeria Nodorum (Septoria Nodorum)/Wheat/Leaf Disc Preventative (Glume Blotch) Wheat leaf segments cv Kanzler were placed on agar in a 24-well plate and sprayed with formulated test compound diluted in water. The leaf disks were inoculated with a spore suspension of the fungus 2 days after application. The inoculated test leaf disks were incubated at 20° C. and 75% relative humidity under a light regime of 12/12 h (light/dark) in a climate cabinet and the activity of a compound was assessed as percent disease control compared to untreated when an appropriate level of disease damage appears in untreated check leaf disks (5-7 days after application).

SMILES | inhibition at 20 ppm [1] | inhibition at 20 ppm [2] | inhibition at 20 ppm [3] | inhibition at 20 ppm (Fusarium Culmorum) | inhibition at 20 ppm [4] | pest or weed control at 200 ppm (Plasmopara Viticola) | inhibition at 20 ppm [5] | inhibition at 20 ppm (Pythium Ultimum) | inhibition at 20 ppm [6] | inhibition at 20 ppm (Gaeumannomyces Graminis) | pest or weed control at 200 ppm [7] | melting point | inhibition at 20 ppm (Sclerotinia Sclerotiorum) | pest or weed control at 200 ppm (Phytophthora Infestans) | pest or weed control at 200 ppm [8]
OB1OCc2cc(F)c(-c3cccs3)cc21 [Compound 6] | ≥ 80% | ≥ 80% | ≥ 80% | ≥ 80% | ≥ 80% | ≥ 80% | ≥ 80% | ≥ 80% | ≥ 80% | ≥ 80% | ≥ 80% | 134 to 140 °C | ≥ 80% | – | –
OB1OCc2cc(Cl)c(-c3ncno3)cc21 [Compound 14, 5-(5-chloro-1-hydroxy-3H-2,1-benzoxaborol-6-yl)-1,2,4-oxadiazole] | ≥ 80% | ≥ 80% | ≥ 80% | ≥ 80% | ≥ 80% | ≥ 80% | ≥ 80% | ≥ 80% | ≥ 80% | ≥ 80% | ≥ 80% | 175 to 177 °C | ≥ 80% | – | –
CC1N=C(c2cc3c(cc2Cl)COB3O)S/C1=N/O (stereo not drawn) [Compound 17] | – | ≥ 80% | ≥ 80% | ≥ 80% | ≥ 80% | – | ≥ 80% | ≥ 80% | ≥ 80% | ≥ 80% | – | – | ≥ 80% | ≥ 80% | –
OB1OCc2cc(Cl)c(-c3cncc(C(F)(F)F)c3)cc21 [Compound 91] | ≥ 80% | ≥ 80% | ≥ 80% | ≥ 80% | ≥ 80% | ≥ 80% | ≥ 80% | ≥ 80% | ≥ 80% | ≥ 80% | ≥ 80% | – | ≥ 80% | – | ≥ 80%
Cn1cccc1-c1cc2c(cc1Cl)COB2O [Compound 4] | – | ≥ 80% | – | ≥ 80% | ≥ 80% | ≥ 80% | ≥ 80% | ≥ 80% | ≥ 80% | ≥ 80% | ≥ 80% | 195 to 202 °C | – | – | ≥ 80%
OB1OCc2ccc(-c3ncon3)cc21 [Compound 92] | ≥ 80% | ≥ 80% | ≥ 80% | ≥ 80% | ≥ 80% | – | ≥ 80% | ≥ 80% | ≥ 80% | ≥ 80% | ≥ 80% | 209 to 211 °C | ≥ 80% | – | –
OB1OCc2cc(Cl)c(-c3ccsc3Cl)cc21 [Compound 88] | ≥ 80% | ≥ 80% | – | ≥ 80% | ≥ 80% | ≥ 80% | ≥ 80% | ≥ 80% | ≥ 80% | ≥ 80% | ≥ 80% | – | ≥ 80% | – | ≥ 80%
Cc1ncsc1-c1cc2c(cc1Cl)COB2O [Compound 16] | – | ≥ 80% | ≥ 80% | ≥ 80% | ≥ 80% | ≥ 80% | ≥ 80% | ≥ 80% | ≥ 80% | ≥ 80% | – | – | ≥ 80% | ≥ 80% | –
OB1OCc2cc(F)c(-c3ccsc3Cl)cc21 [Compound 79] | ≥ 80% | ≥ 80% | – | – | ≥ 80% | ≥ 80% | ≥ 80% | ≥ 80% | ≥ 80% | ≥ 80% | ≥ 80% | – | ≥ 80% | – | ≥ 80%
OB1OCc2cc(Cl)c(-c3cccs3)cc21 [Compound 3] | ≥ 80% | ≥ 80% | ≥ 80% | ≥ 80% | ≥ 80% | ≥ 80% | ≥ 80% | ≥ 80% | ≥ 80% | ≥ 80% | ≥ 80% | 125 to 135 °C | ≥ 80% | – | ≥ 80%
CC(=O)c1ccc(-c2cc3c(cc2Cl)COB3O)o1 [Compound 39] | ≥ 80% | ≥ 80% | – | ≥ 80% | ≥ 80% | ≥ 80% | – | ≥ 80% | ≥ 80% | ≥ 80% | – | – | – | ≥ 80% | –

From patent publication US10314308B2, “Microbiocidal benzoxaboroles” (SYNGENTA PARTICIPATIONS AG, priority 2015, dated 2019)
